Reference: ChEMBL document CHEMBL3739322, “Novel oxime-bearing coumarin derivatives act as potent Nrf2/ARE activators in vitro and in mouse model” (Eur J Med Chem, 2015)
Active and inactive are the calls of the source. No cut-off for these calls is given here.

Tests used:
[1] = Antioxidant activity assessed as DPPH radical scavenging activity; format: physicochemical
[2] = molecular target: T1, Nuclear factor erythroid 2-related factor 2 (Homo sapiens) (UniProt Q16236); test: Activation of Nrf2 in human HSC3-ARE9 cells assessed as increase of ARE-mediated luciferase expression at 50 uM after 24 hrs relative to control; format: cell-based
T1 sequence (whole entry): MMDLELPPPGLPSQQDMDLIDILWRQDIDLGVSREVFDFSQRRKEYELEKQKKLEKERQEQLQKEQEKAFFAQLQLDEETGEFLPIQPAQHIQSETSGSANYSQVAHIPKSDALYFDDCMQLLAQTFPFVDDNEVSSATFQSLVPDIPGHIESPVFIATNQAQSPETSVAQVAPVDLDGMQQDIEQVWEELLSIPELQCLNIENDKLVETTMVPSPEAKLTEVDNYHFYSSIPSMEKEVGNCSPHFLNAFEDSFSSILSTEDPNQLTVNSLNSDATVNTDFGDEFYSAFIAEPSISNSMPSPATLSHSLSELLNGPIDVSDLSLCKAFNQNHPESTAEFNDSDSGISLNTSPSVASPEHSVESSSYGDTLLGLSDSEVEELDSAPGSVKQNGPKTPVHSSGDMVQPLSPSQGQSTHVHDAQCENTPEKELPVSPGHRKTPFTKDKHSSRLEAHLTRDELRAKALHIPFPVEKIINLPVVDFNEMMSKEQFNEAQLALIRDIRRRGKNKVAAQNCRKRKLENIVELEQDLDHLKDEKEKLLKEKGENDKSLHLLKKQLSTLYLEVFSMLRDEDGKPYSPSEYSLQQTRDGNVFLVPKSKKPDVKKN

[3] = molecular target: T1, Nuclear factor erythroid 2-related factor 2 (Homo sapiens); test: Activation of Nrf2 in human HSC3-ARE9 cells assessed as increase of ARE-mediated luciferase expression after 24 hrs; format: cell-based
[4] = Cytotoxicity against human HSC3 cells after 24 hrs by MTT assay; format: cell-based; details: hsc-3, 24 h
[5] = molecular target: T1, Nuclear factor erythroid 2-related factor 2 (Homo sapiens); test: Activation of Nrf2 in human HSC3-ARE9 cells assessed as increase of ARE-mediated AKR1C1 mRNA expression at 50 uM after 24 hrs by RT-PCR analysis relative to control; format: cell-based
[6] = molecular target: T1, Nuclear factor erythroid 2-related factor 2 (Homo sapiens); test: Activation of Nrf2 in human HSC3-ARE9 cells assessed as increase of ARE-mediated GCLC mRNA expression at 50 uM after 24 hrs by RT-PCR analysis relative to control; format: cell-based
[7] = molecular target: T1, Nuclear factor erythroid 2-related factor 2 (Homo sapiens); test: Activation of Nrf2 in human HSC3-ARE9 cells assessed as increase of ARE-mediated Prx1 mRNA expression at 50 uM after 24 hrs by RT-PCR analysis relative to control; format: cell-based
[8] = system: Mus musculus; test: Induction of Nrf2-mediated cytoprotective activity in C57BL/6J mouse assessed as increase of AKR1C1 level in liver at 50 mg/kg, po qd for 7 days measured after 24 hrs of last dose; format: functional, organism-based
[9] = molecular target: T1, Nuclear factor erythroid 2-related factor 2 (Homo sapiens); test: Activation of Nrf2 in human HSC3-ARE9 cells assessed as increase of ARE-mediated AKR1C2 mRNA expression at 50 uM after 24 hrs by RT-PCR analysis relative to control; format: cell-based
[10] = molecular target: T1, Nuclear factor erythroid 2-related factor 2 (Homo sapiens); test: Activation of Nrf2 in human HSC3-ARE9 cells assessed as increase of ARE-mediated AKR1C3 mRNA expression at 50 uM after 24 hrs by RT-PCR analysis relative to control; format: cell-based
[11] = system: Mus musculus; test: Induction of Nrf2-mediated cytoprotective activity in C57BL/6J mouse assessed as increase of HO-1 level in liver at 50 mg/kg, po qd for 7 days measured after 24 hrs of last dose; format: functional, organism-based
[12] = system: HSC-3; test: Inhibition of t-BOOH-induced oxidative stress in human HSC3 cells assessed as intracellular ROS level at 50 uM after 24 hrs by DCF fluorescence assay; format: functional, cell-based
[13] = molecular target: T1, Nuclear factor erythroid 2-related factor 2 (Homo sapiens); test: Activation of Nrf2 in human HSC3-ARE9 cells assessed as increase of ARE-mediated GCLC protein expression after 24 hrs by Western blot analysis; format: cell-based
[14] = molecular target: T1, Nuclear factor erythroid 2-related factor 2 (Homo sapiens); test: Activation of Nrf2 in human HSC3-ARE9 cells assessed as increase of ARE-mediated AKR1C1 protein expression after 24 hrs by Western blot analysis; format: cell-based
[15] = molecular target: T1, Nuclear factor erythroid 2-related factor 2 (Homo sapiens); test: Activation of Nrf2 in human HSC3-ARE9 cells assessed as increase of ARE-mediated Prx1 protein expression after 24 hrs by Western blot analysis; format: cell-based
[16] = molecular target: T1, Nuclear factor erythroid 2-related factor 2 (Homo sapiens); test: Activation of Nrf2 in human HSC3-ARE9 cells assessed as increase of ARE-mediated luciferase expression at 50 uM after 24 hrs in presence of PKC inhibitor Ro-31-8220; format: cell-based
[17] = system: Mus musculus; test: Induction of Nrf2-mediated cytoprotective activity in C57BL/6J mouse assessed as increase of GR level in liver at 50 mg/kg, po qd for 7 days measured after 24 hrs of last dose; format: functional, organism-based
[18] = molecular target: T1, Nuclear factor erythroid 2-related factor 2 (Homo sapiens); test: Activation of Nrf2 in human HSC3-ARE9 cells assessed as increase of ARE-mediated NQO1 mRNA expression at 50 uM after 24 hrs by RT-PCR analysis relative to control; format: cell-based
[19] = molecular target: T1, Nuclear factor erythroid 2-related factor 2 (Homo sapiens); test: Activation of Nrf2 in human HSC3-ARE9 cells assessed as increase of protein level in nucleus after 24 hrs by Western blot analysis; format: cell-based
[20] = molecular target: T1, Nuclear factor erythroid 2-related factor 2 (Homo sapiens); test: Activation of Nrf2 in human HSC3-ARE9 cells assessed as increase of ARE-mediated luciferase expression at 50 uM after 24 hrs in presence of p38 inhibitor SB203580; format: cell-based
[21] = molecular target: T1, Nuclear factor erythroid 2-related factor 2 (Homo sapiens); test: Activation of Nrf2 in human HSC3-ARE9 cells assessed as increase of ARE-mediated luciferase expression at 50 uM after 24 hrs in presence of PI3K inhibitor LY294002; format: cell-based
[22] = system: Mus musculus; test: Toxicity in C57BL/6J mouse assessed as change in body weight at 50 mg/kg, po qd for 7 days; format: organism-based; details: in vivo, 168 h
[23] = molecular target: T1, Nuclear factor erythroid 2-related factor 2 (Homo sapiens); test: Activation of Nrf2 in human HSC3-ARE9 cells assessed as increase of ARE-mediated ABCC3 mRNA expression at 50 uM after 24 hrs by RT-PCR analysis relative to control; format: cell-based
[24] = molecular target: T1, Nuclear factor erythroid 2-related factor 2 (Homo sapiens); test: Increase of Nrf2 phosphorylation at ser-40 in human HSC3 cells at 50 uM after 24 hrs by Western blot analysis relative to control; format: cell-based; details: HSC-3
[25] = molecular target: T1, Nuclear factor erythroid 2-related factor 2 (Homo sapiens); test: Activation of Nrf2 in human HSC3-ARE9 cells assessed as increase of ARE-mediated GR mRNA expression at 50 uM after 24 hrs by RT-PCR analysis relative to control; format: cell-based
[26] = molecular target: T1, Nuclear factor erythroid 2-related factor 2 (Homo sapiens); test: Activation of Nrf2 in human HSC3-ARE9 cells assessed as increase of ARE-mediated luciferase expression at 50 uM after 24 hrs in presence of MEK inhibitor U0126; format: cell-based

O=c1cc(O)c2ccccc2o1 [4-HYDROXYCOUMARINS]
EC50 [1]: 351 µM
fold change (FC) [2]: 0.84

O=c1oc2ccccc2cc1OC/C(=N\O)c1ccc(F)cc1
Activity [3]: Dose-dependent effect
EC50 [1]: > 400 µM
Activity [4]: Non-toxic
fold change (FC) [2]: 3.25

O=c1ccc2ccc(O)cc2o1 [UMBELLIFERONE]
EC50 [1]: > 400 µM
fold change (FC) [2]: 0.98

O=c1ccc2cc(OC/C(=N\O)c3ccccc3)ccc2o1
Activity [3]: Dose-dependent effect
EC50 [1]: > 400 µM
Activity [4]: Non-toxic
fold change (FC) [2]: 3.02

O=C(COc1cc(=O)oc2ccccc12)c1ccc2ccccc2c1
fold change (FC) [2]: 1.52

CC(C)(C)c1cc(O)ccc1O [E319]
fold change (FC) [5]: 2.3
EC50 [1]: 57.5 µM
fold change (FC) [6]: 2
fold change (FC) [2]: 2.01
fold change (FC) [7]: 1.1

CC(=O)COc1ccc2oc(=O)ccc2c1
fold change (FC) [2]: 1.03

O=c1ccc2cc(O)ccc2o1 [6-HYDROXYCOUMARIN]
EC50 [1]: > 400 µM
fold change (FC) [2]: 0.99

COc1ccc(/C(COc2cc(=O)oc3ccccc23)=N/O)cc1
fold change (FC) [2]: 1.76

O=C(COc1cc2ccccc2oc1=O)Nc1ccc2ccccc2c1
fold change (FC) [2]: 1.13

O=C(COc1cc(=O)oc2ccccc12)c1ccc(-c2ccccc2)cc1
fold change (FC) [2]: 0.42

O=C(COc1ccc2oc(=O)ccc2c1)Nc1ccccc1
fold change (FC) [2]: 2.08

O=C(COc1cc2ccccc2oc1=O)Nc1ccccc1
fold change (FC) [2]: 2.51

COc1ccc(C(=O)COc2ccc3oc(=O)ccc3c2)cc1
fold change (FC) [2]: 0.82

O=C(COc1ccc2ccc(=O)oc2c1)Nc1ccccc1
fold change (FC) [2]: 2.27

O=C(COc1ccc2ccc(=O)oc2c1)c1ccc(F)cc1
fold change (FC) [2]: 1.14

O=C(COc1cc2ccccc2oc1=O)Nc1ccc(F)cc1
fold change (FC) [2]: 1.34

O=C(COc1ccc2oc(=O)ccc2c1)c1ccc(-c2ccccc2)cc1
fold change (FC) [2]: 0.85

O=C(COc1ccc2oc(=O)ccc2c1)Nc1ccc(F)cc1
fold change (FC) [2]: 0.95

O=c1ccc2ccc(OC/C(=N\O)c3ccccc3)cc2o1
fold change (FC) [2]: 2.16

COc1ccc(NC(=O)COc2cc(=O)oc3ccccc23)cc1
fold change (FC) [2]: 1.34

O=c1oc2ccccc2cc1O [3-HYDROXYCOUMARIN]
EC50 [1]: 65.8 µM
fold change (FC) [2]: 0.94

COc1ccc(NC(=O)COc2ccc3oc(=O)ccc3c2)cc1
fold change (FC) [2]: 0.89

O=C(COc1ccc2ccc(=O)oc2c1)c1ccccc1
fold change (FC) [2]: 1.93

O=C(COc1ccc2oc(=O)ccc2c1)c1ccc2ccccc2c1
fold change (FC) [2]: 0.61

O=C(COc1ccc2ccc(=O)oc2c1)c1ccc(-c2ccccc2)cc1
fold change (FC) [2]: 0.85

O=c1oc2ccccc2cc1OC/C(=N\O)c1ccccc1
Activity [8]: Active
fold change (FC) [9]: 1.4
Activity [3]: Dose-dependent effect
fold change (FC) [10]: 1.3
fold change (FC) [5]: 1.5
Activity [11]: Active
inhibition [12]: Active
Activity [13]: Dose-dependent effect
Activity [14]: Dose-dependent effect
EC50 [1]: > 400 µM
Activity [15]: Dose-dependent effect
Activity [4]: Non-toxic
Activity [16]: inactive
Activity [17]: Active
fold change (FC) [18]: 1.2
Activity [19]: Dose-dependent effect
Activity [20]: Active
Activity [21]: inactive
Activity [22]: Non-toxic
fold change (FC) [6]: 1.6
fold change (FC) [23]: 1.3
fold change (FC) [2]: 3.45
fold change (FC) [7]: 1.6
Activity [24]: 126%
fold change (FC) [25]: 1.3
Activity [26]: Active

O=C(COc1ccc2oc(=O)ccc2c1)Nc1ccc2ccccc2c1
fold change (FC) [2]: 0.91

O=C(COc1ccc2oc(=O)ccc2c1)c1ccccc1
fold change (FC) [2]: 2.54

O=C(COc1cc(=O)oc2ccccc12)Nc1ccc2ccccc2c1
fold change (FC) [2]: 1.37

O=C(COc1cc2ccccc2oc1=O)c1ccc(-c2ccccc2)cc1
fold change (FC) [2]: 0.98

O=c1cc(OC/C(=N\O)c2ccc(F)cc2)c2ccccc2o1
fold change (FC) [2]: 1.67
